Measurements published in patent US20260116920A1, “HUMAN TRANSFERRIN RECEPTOR BINDING PEPTIDE” (PEPTIDREAM INC., priority 2021, published 2026).
Starred links: 1 amine or outer side, 2 acyl side, 3 side chain; linkers in the order of their positions; H or OH if unused. Positions of bridges follow the written chain, without caps; N, C: chain ends. Non-standard residues stand in square brackets, D forms with d. Residues, ends and D or L forms follow the SMILES beside them. *: point of attachment. Trp(1-CH2COOH) = N[C@@H](Cc1cn(CC(=O)O)c2ccccc12)C(=O)O; NMePhe(4-COOH) = CN[C@@H](Cc1ccc(C(=O)O)cc1)C(=O)O; X1 = O=C([C@H](Cc1cccc(C(=O)[*:3])c1)N[*:1])[*:2]; Nle(6-morpholino) = N[C@@H](CCCCN1CCOCC1)C(=O)O; Phe(3-COOH) = N[C@@H](Cc1cccc(C(=O)O)c1)C(=O)O; Trp(7-aza) = N[C@@H](Cc1c[nH]c2ncccc12)C(=O)O; NH(CH2CH2O)8Me = COCCOCCOCCOCCOCCOCCOCCOCCN*; NMePhe(3-Cl) = CN[C@@H](Cc1cccc(Cl)c1)C(=O)O; 3Pal(6-NH2) = Nc1ccc(C[C@H](N)C(=O)O)cn1; X2 = COCCOCCOCCOCCOCCOCCOCCOCCNC(=O)C*; NMeY = CN[C@@H](Cc1ccc(O)cc1)C(=O)O; 4Pal = N[C@@H](Cc1ccncc1)C(=O)O; PEG4 = NCCOCCOCCOCCOCCC(=O)O; Carboxymethyl = O=C(O)C*

Each compound was assayed against T1, human transferrin receptor (hTfR) (Homo sapiens, UniProt P02786) (assay: Evaluation of molecular interaction between transferrin receptor (hTfR) and peptide using surface plasmon resonance (SPR)). Details: peptide with linker, surface plasmon resonance; read-out: SPR (KD class for binding to hTfR).
T1 construct: made in house
Format: binding
Procedure, shortened: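 Single-cycle SPR kinetics, KD by least-squares sensorgram fitting, with peptide series of 100, 50, 25, 10 and 5 nM. Running buffer: 10 mM HEPES pH 8.0, 150 mM NaCl, 0.05% Tween 20, 0.1% BSA, 1.0% DMSO. Surface: hTfR dimer covalently coupled (EDC/NHS) onto Ni-NTA chip.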

T1 sequence (P02786 89-760 limits assumed): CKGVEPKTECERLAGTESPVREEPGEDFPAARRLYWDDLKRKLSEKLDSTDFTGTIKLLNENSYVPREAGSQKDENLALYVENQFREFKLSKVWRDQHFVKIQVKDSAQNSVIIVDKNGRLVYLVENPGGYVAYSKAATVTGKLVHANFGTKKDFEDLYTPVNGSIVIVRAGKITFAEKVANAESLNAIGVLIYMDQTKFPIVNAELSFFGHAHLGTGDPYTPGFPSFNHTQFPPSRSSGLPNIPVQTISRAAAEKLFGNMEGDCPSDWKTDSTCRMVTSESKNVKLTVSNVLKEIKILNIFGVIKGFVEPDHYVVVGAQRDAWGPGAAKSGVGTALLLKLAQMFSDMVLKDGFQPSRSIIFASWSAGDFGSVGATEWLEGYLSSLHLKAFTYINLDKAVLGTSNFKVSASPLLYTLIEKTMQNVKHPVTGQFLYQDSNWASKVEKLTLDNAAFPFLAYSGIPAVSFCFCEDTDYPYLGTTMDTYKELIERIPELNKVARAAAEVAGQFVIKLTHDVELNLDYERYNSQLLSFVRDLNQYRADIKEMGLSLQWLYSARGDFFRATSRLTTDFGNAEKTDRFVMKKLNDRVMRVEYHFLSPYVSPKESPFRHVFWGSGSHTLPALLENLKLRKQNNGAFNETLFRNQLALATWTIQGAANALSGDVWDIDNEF

Row | Kd [nM] | SMILES
1 | 1 to 100 | CC[C@H](C)[C@@H]1NC(=O)[C@H](Cc2ccc(OCC(=O)O)cc2)NC(=O)[C@H](Cc2ccc(O)cc2)NC(=O)[C@H](CC(N)=O)NC(=O)[C@H](Cc2c[nH]c3ncccc23)NC(=O)[C@H](C(C)C)NC(=O)[C@H](Cc2cccc(Cl)c2)N(C)C(=O)[C@H](C(C)C)NC(=O)[C@H](C)NC(=O)CSC[C@@H](C(=O)NCCOCCOCCOCCOCCC(N)=O)NC(=O)[C@H](Cc2ccc(O)cc2)N(C)C(=O)[C@H](Cc2ccncc2)NC(=O)[C@H](CCCNC(=N)N)NC(=O)[C@H](CCC(=O)NCCOCCOCCOCCOCCOCCOCCOCCOC)NC(=O)[C@H]([C@@H](C)CC)NC1=O [compound 218]
2 | 1 to 100 | CC[C@H](C)[C@@H]1NC(=O)[C@H](Cc2ccc(OCC(=O)O)cc2)NC(=O)[C@H](Cc2ccc(N)nc2)NC(=O)[C@H](CC(N)=O)NC(=O)[C@H](Cc2cn(CC(=O)O)c3ccccc23)NC(=O)[C@H](C(C)C)NC(=O)[C@H](Cc2cccc(Cl)c2)N(C)C(=O)[C@H](C(C)C)NC(=O)[C@H](C)NC(=O)CSC[C@@H](C(=O)NCCOCCOCCOCCOCCC(N)=O)NC(=O)[C@H](Cc2ccc(O)cc2)N(C)C(=O)[C@H](Cc2ccncc2)NC(=O)[C@H](CCCNC(=N)N)NC(=O)[C@H](CCC(=O)NCCOCCOCCOCCOCCOCCOCCOCCOC)NC(=O)[C@H]([C@@H](C)CC)NC1=O [compound 222]
3 | 1 to 100 | CC[C@H](C)[C@@H]1NC(=O)[C@H](Cc2ccc(OCC(=O)O)cc2)NC(=O)[C@H](Cc2ccc(N)nc2)NC(=O)[C@H](CC(N)=O)NC(=O)[C@H](Cc2cn(CC(=O)O)c3ccccc23)NC(=O)[C@H](C(C)C)NC(=O)[C@H](Cc2cccc(Cl)c2)N(C)C(=O)[C@H](C(C)C)NC(=O)[C@H](C)NC(=O)CSC[C@@H](C(=O)NCCOCCOCCOCCOCCC(N)=O)NC(=O)[C@H](Cc2ccc(O)cc2)N(C)C(=O)[C@H](Cc2cccc(C(=O)O)c2)NC(=O)[C@H](CCCNC(=N)N)NC(=O)[C@H](CCC(=O)NCCOCCOCCOCCOCCOCCOCCOCCOC)NC(=O)[C@H]([C@@H](C)CC)NC1=O [compound 223] ({CH2CO}-AV[NMePhe(3-Cl)]V[Trp(1-CH2COOH)]N[3Pal(6-NH2)]Y(Carboxymethyl)IIE(NH(CH2CH2O)8Me)R[Phe(3-COOH)][NMeY]C[PEG4]-NH2; thioether N-15)
4 | 1 to 100 | CC[C@H](C)[C@@H]1NC(=O)[C@H](Cc2ccc(OCC(=O)O)cc2)NC(=O)[C@H](Cc2ccc(N)nc2)NC(=O)[C@H](CC(N)=O)NC(=O)[C@H](Cc2c[nH]c3ncccc23)NC(=O)[C@H](C(C)C)NC(=O)[C@H](Cc2cccc(Cl)c2)N(C)C(=O)[C@H](C(C)C)NC(=O)[C@H](C)NC(=O)CSC[C@@H](C(=O)NCCOCCOCCOCCOCCC(N)=O)NC(=O)[C@H](Cc2ccc(O)cc2)N(C)C(=O)[C@H](Cc2ccncc2)NC(=O)[C@H](CCCNC(=N)N)NC(=O)[C@H](CCC(=O)NCCOCCOCCOCCOCCOCCOCCOCCOC)NC(=O)[C@H]([C@@H](C)CC)NC1=O [compound 224]
5 | 1 to 100 | CC[C@H](C)[C@@H]1NC(=O)[C@H](Cc2ccc(OCC(=O)NCCOCCOCCOCCOCCOCCOCCOCCOC)cc2)NC(=O)[C@H](Cc2ccc(O)cc2)NC(=O)[C@H](CC(N)=O)NC(=O)[C@H](Cc2c[nH]c3ncccc23)NC(=O)[C@H](C(C)C)NC(=O)[C@H](Cc2cccc(Cl)c2)N(C)C(=O)[C@H](C(C)C)NC(=O)[C@H](C)NC(=O)CSC[C@@H](C(=O)NCCOCCOCCOCCOCCC(N)=O)NC(=O)[C@H](Cc2ccc(C(=O)NCCOCCOCCOCCOCCOCCOCCOCCOC)cc2)N(C)C(=O)[C@H](Cc2cccc(C(=O)NCCOCCOCCOCCOCCOCCOCCOCCOC)c2)NC(=O)[C@H](CCC(N)=O)NC(=O)[C@H](CCC(N)=O)NC(=O)[C@H]([C@@H](C)CC)NC1=O [compound 226] ({CH2CO}-AV[NMePhe(3-Cl)]V[Trp(7-aza)]NYY(X2)IIQQ[X1](NH(CH2CH2O)8Me)[NMePhe(4-COOH)](NH(CH2CH2O)8Me)C[PEG4]-NH2; thioether N-15)
6 | 1 to 100 | CC[C@H](C)[C@@H]1NC(=O)[C@H](Cc2ccc(OCC(=O)NCCOCCOCCOCCOCCOCCOCCOCCOC)cc2)NC(=O)[C@H](Cc2ccc(O)cc2)NC(=O)[C@H](CC(N)=O)NC(=O)[C@H](Cc2c[nH]c3ncccc23)NC(=O)[C@H](C(C)C)NC(=O)[C@H](Cc2cccc(Cl)c2)N(C)C(=O)[C@H](C(C)C)NC(=O)[C@H](C)NC(=O)CSC[C@@H](C(=O)NCCOCCOCCOCCOCCC(N)=O)NC(=O)[C@H](Cc2ccc(C(=O)NCCOCCOCCOCCOCCOCCOCCOCCOC)cc2)N(C)C(=O)[C@H](Cc2ccncc2)NC(=O)[C@H](CCC(N)=O)NC(=O)[C@H](CCC(N)=O)NC(=O)[C@H]([C@@H](C)CC)NC1=O [compound 227] ({CH2CO}-AV[NMePhe(3-Cl)]V[Trp(7-aza)]NYY(X2)IIQQ[4Pal][NMePhe(4-COOH)](NH(CH2CH2O)8Me)C[PEG4]-NH2; thioether N-15)

The remaining lines, values behind:

Row | SMILES | Kd [nM]
7 | CC[C@H](C)[C@@H]1NC(=O)[C@H](Cc2ccc(OCC(=O)O)cc2)NC(=O)[C@H](Cc2ccc(O)cc2)NC(=O)[C@H](CC(N)=O)NC(=O)[C@H](Cc2cn(CC(=O)O)c3ccccc23)NC(=O)[C@H](C(C)C)NC(=O)[C@H](Cc2cccc(Cl)c2)N(C)C(=O)[C@H](C(C)C)NC(=O)[C@H](C)NC(=O)CSC[C@@H](C(=O)NCCOCCOCCOCCOCCC(N)=O)NC(=O)[C@H](Cc2ccc(O)cc2)N(C)C(=O)[C@H](Cc2cccc(C(=O)O)c2)NC(=O)[C@H](CCCCN2CCOCC2)NC(=O)[C@H](CCC(N)=O)NC(=O)[C@H]([C@@H](C)CC)NC1=O [compound 216] ({CH2CO}-AV[NMePhe(3-Cl)]V[Trp(1-CH2COOH)]NYY(Carboxymethyl)IIQ[Nle(6-morpholino)][Phe(3-COOH)][NMeY]C[PEG4]-NH2; thioether N-15) | 1 to 100
8 | CC[C@H](C)[C@@H]1NC(=O)[C@H](Cc2ccc(OCC(=O)O)cc2)NC(=O)[C@H](Cc2ccc(O)cc2)NC(=O)[C@H](CC(N)=O)NC(=O)[C@H](Cc2cn(CC(=O)O)c3ccccc23)NC(=O)[C@H](C(C)C)NC(=O)[C@H](Cc2cccc(Cl)c2)N(C)C(=O)[C@H](C(C)C)NC(=O)[C@H](C)NC(=O)CSC[C@@H](C(=O)NCCOCCOCCOCCOCCC(N)=O)NC(=O)[C@H](Cc2ccc(O)cc2)N(C)C(=O)[C@H](Cc2cccc(C(=O)O)c2)NC(=O)[C@H](CCCCN2CCOCC2)NC(=O)[C@H](CCC(=O)NCCOCCOCCOCCOCCOCCOCCOCCOC)NC(=O)[C@H]([C@@H](C)CC)NC1=O [compound 217] ({CH2CO}-AV[NMePhe(3-Cl)]V[Trp(1-CH2COOH)]NYY(Carboxymethyl)IIE(NH(CH2CH2O)8Me)[Nle(6-morpholino)][Phe(3-COOH)][NMeY]C[PEG4]-NH2; thioether N-15) | 1 to 100
9 | CC[C@H](C)[C@@H]1NC(=O)[C@H](Cc2ccc(OCC(=O)O)cc2)NC(=O)[C@H](Cc2ccc(O)cc2)NC(=O)[C@H](CC(N)=O)NC(=O)[C@H](Cc2cn(CC(=O)O)c3ccccc23)NC(=O)[C@H](C(C)C)NC(=O)[C@H](Cc2cccc(Cl)c2)N(C)C(=O)[C@H](C(C)C)NC(=O)[C@H](C)NC(=O)CSC[C@@H](C(=O)NCCOCCOCCOCCOCCC(N)=O)NC(=O)[C@H](Cc2ccc(O)cc2)N(C)C(=O)[C@H](Cc2ccncc2)NC(=O)[C@H](CCCCN2CCOCC2)NC(=O)[C@H](CCC(=O)NCCOCCOCCOCCOCCOCCOCCOCCOC)NC(=O)[C@H]([C@@H](C)CC)NC1=O [compound 219] | 1 to 100
10 | CC[C@H](C)[C@@H]1NC(=O)[C@H](Cc2ccc(OCC(=O)O)cc2)NC(=O)[C@H](Cc2ccc(O)cc2)NC(=O)[C@H](CC(N)=O)NC(=O)[C@H](Cc2c[nH]c3ncccc23)NC(=O)[C@H](C(C)C)NC(=O)[C@H](Cc2cccc(Cl)c2)N(C)C(=O)[C@H](C(C)C)NC(=O)[C@H](C)NC(=O)CSC[C@@H](C(=O)NCCOCCOCCOCCOCCC(N)=O)NC(=O)[C@H](Cc2ccc(O)cc2)N(C)C(=O)[C@H](Cc2cccc(C(=O)O)c2)NC(=O)[C@H](CCCCN2CCOCC2)NC(=O)[C@H](CCC(=O)NCCOCCOCCOCCOCCOCCOCCOCCOC)NC(=O)[C@H]([C@@H](C)CC)NC1=O [compound 220] ({CH2CO}-AV[NMePhe(3-Cl)]V[Trp(7-aza)]NYY(Carboxymethyl)IIE(NH(CH2CH2O)8Me)[Nle(6-morpholino)][Phe(3-COOH)][NMeY]C[PEG4]-NH2; thioether N-15) | 1 to 100
11 | CC[C@H](C)[C@@H]1NC(=O)[C@H](Cc2ccc(OCC(=O)O)cc2)NC(=O)[C@H](Cc2ccc(O)cc2)NC(=O)[C@H](CC(N)=O)NC(=O)[C@H](Cc2c[nH]c3ncccc23)NC(=O)[C@H](C(C)C)NC(=O)[C@H](Cc2cccc(Cl)c2)N(C)C(=O)[C@H](C(C)C)NC(=O)[C@H](C)NC(=O)CSC[C@@H](C(=O)NCCOCCOCCOCCOCCC(N)=O)NC(=O)[C@H](Cc2ccc(O)cc2)N(C)C(=O)[C@H](CCC(=O)NCCOCCOCCOCCOCCOCCOCCOCCOC)NC(=O)[C@H](CCCNC(=N)N)NC(=O)[C@H](CCC(=O)NCCOCCOCCOCCOCCOCCOCCOCCOC)NC(=O)[C@H]([C@@H](C)CC)NC1=O [compound 221] ({CH2CO}-AV[NMePhe(3-Cl)]V[Trp(7-aza)]NYY(Carboxymethyl)IIE(NH(CH2CH2O)8Me)RE(NH(CH2CH2O)8Me)[NMeY]C[PEG4]-NH2; thioether N-15) | 1 to 100
12 | CC[C@H](C)[C@@H]1NC(=O)[C@H](Cc2ccc(OCC(=O)O)cc2)NC(=O)[C@H](Cc2ccc(O)cc2)NC(=O)[C@H](CC(N)=O)NC(=O)[C@H](Cc2c[nH]c3ncccc23)NC(=O)[C@H](C(C)C)NC(=O)[C@H](Cc2cccc(Cl)c2)N(C)C(=O)[C@H](C(C)C)NC(=O)[C@H](C)NC(=O)CSC[C@@H](C(=O)NCCOCCOCCOCCOCCC(N)=O)NC(=O)[C@H](Cc2ccc(O)cc2)N(C)C(=O)[C@H](Cc2cccc(C(=O)O)c2)NC(=O)[C@H](CCCNC(=N)N)NC(=O)[C@H](CCC(N)=O)NC(=O)[C@H]([C@@H](C)CC)NC1=O [compound 225] | < 1

Same assay, conditions: surface plasmon resonance, binding to hTfR; KD class symbol; read-out: SPR (KD value)

Row | SMILES | Kd [nM]
13 | CC[C@H](C)[C@@H]1NC(=O)[C@H](Cc2ccc(OCC(=O)O)cc2)NC(=O)[C@H](Cc2ccc(N)nc2)NC(=O)[C@H](CC(N)=O)NC(=O)[C@H](Cc2c[nH]c3ccccc23)NC(=O)[C@H](C(C)C)NC(=O)[C@H](Cc2cccc(Cl)c2)N(C)C(=O)[C@H](C(C)C)NC(=O)[C@H](C)NC(=O)CSC[C@@H](C(=O)NCCOCCOCCOCCOCCC(N)=O)NC(=O)[C@H](Cc2ccc(O)cc2)N(C)C(=O)[C@H](Cc2ccncc2)NC(=O)[C@H](CCCNC(=N)N)NC(=O)[C@H](CCC(=O)NCCOCCOCCOCCOCCOCCOCCOCCOC)NC(=O)[C@H]([C@@H](C)CC)NC1=O [compound 141] | 100 to 1000
